Consider 68 compounds from patent US7247641B2, “Compounds, derivatives, compositions, preparation and uses” (MGI GP, Inc., priority 2001, dated 2007).

T1 sequence (P09874 whole entry): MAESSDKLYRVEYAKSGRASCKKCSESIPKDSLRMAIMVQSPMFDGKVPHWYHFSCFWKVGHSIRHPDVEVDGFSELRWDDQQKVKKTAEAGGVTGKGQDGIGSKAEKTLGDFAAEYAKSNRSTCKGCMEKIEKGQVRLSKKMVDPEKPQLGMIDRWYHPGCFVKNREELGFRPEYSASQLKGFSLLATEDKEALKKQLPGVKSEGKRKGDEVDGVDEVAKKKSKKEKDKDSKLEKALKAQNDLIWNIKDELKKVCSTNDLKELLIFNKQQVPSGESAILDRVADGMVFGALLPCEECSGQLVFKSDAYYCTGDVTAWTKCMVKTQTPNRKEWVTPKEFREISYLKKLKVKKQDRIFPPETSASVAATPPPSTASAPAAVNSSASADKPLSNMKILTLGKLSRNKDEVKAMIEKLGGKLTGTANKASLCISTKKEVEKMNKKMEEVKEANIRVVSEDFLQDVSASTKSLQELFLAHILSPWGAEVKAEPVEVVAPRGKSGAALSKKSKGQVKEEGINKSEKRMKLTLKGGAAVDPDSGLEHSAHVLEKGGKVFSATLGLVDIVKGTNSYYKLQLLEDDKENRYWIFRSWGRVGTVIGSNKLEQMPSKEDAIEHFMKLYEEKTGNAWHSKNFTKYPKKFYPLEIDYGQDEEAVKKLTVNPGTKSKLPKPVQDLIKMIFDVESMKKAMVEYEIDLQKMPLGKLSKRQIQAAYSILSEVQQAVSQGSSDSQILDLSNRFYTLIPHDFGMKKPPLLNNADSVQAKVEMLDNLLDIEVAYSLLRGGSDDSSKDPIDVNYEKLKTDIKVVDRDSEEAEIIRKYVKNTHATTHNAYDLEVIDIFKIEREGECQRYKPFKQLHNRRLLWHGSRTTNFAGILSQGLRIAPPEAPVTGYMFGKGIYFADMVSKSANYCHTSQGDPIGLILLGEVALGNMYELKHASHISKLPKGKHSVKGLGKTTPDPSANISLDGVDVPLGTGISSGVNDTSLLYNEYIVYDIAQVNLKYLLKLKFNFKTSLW

The first data set has as its target T1, purified recombinant human PARP (Homo sapiens, UniProt P09874).
T1 construct: purchased Trevigan (Gaithersburg, Md.)
Nature of the data set: PARP enzyme assay, [3H]NAD incorporation, IC50. It is filed as biochemical.
Settings: not given
As to the method:
The reaction is initiated by incubating the mixture at 25° C. After 15 minutes of incubation, the reaction is terminated by adding 500 microliters of ice cold 20% (w/v) trichloroacetic acid. The precipitate formed is transferred onto a glass fiber filter (Packard Unifilter-GF/B) and washed three times with ethanol. After the filter is dried, the radioactivity is determined by scintillation counting.
Regarding `O=c1[nH]c2c(c3ccccc13)CN(S(=O)(=O)CCN1CCC(N3CCCC3)CC1)CC2` [Compound 24a], the IC50 amounted to 80 nM.

The same data set, now with this note: approximate values, PARP enzyme assay; read-out: IC50.
On to `O=c1[nH]c2c(c3ccccc13)CN(Cc1ccccc1)CC2` [Compound 6a], for which the IC50 turned out to be 335 nM. Take `O=c1[nH]c2c(c3ccc(F)cc13)CN(Cc1ccccc1)CC2` [Compound 6b]: the IC50 came to 182 nM. For `O=c1[nH]c2c(c3ccccc13)CCN(Cc1ccccc1)C2` [Compound 11], the IC50 worked out at 220 nM.

Consider `O=C(CCCl)N1CCc2[nH]c(=O)c3ccccc3c2C1` [Compound 14a], for which the IC50 came out at 185 nM. On to `CN(C)CCCN(C)CC(=O)N1CCc2[nH]c(=O)c3ccccc3c2C1` [Compound 16a], for which the IC50 was 426 nM.

As to `CN1CCN(CC(=O)N2CCc3[nH]c(=O)c4ccccc4c3C2)CC1` [Compound 16b], the concentration for half-maximal inhibition (IC50) was determined as 1670 nM. Take `CC(O)CNCC(=O)N1CCc2[nH]c(=O)c3ccccc3c2C1` (centres unmarked) [Compound 16c]: the IC50 stood at 421 nM. Turning to `CN(C)CCN(C)CC(=O)N1CCc2[nH]c(=O)c3ccccc3c2C1` [Compound 16d], the IC50 stood at 985 nM. Take `O=C(CN1CCCCC1CO)N1CCc2[nH]c(=O)c3ccccc3c2C1` (centres unmarked) [Compound 16e]: the IC50 worked out at 844 nM.

Regarding `O=C(CN1CCN(CCO)CC1)N1CCc2[nH]c(=O)c3ccccc3c2C1` [Compound 16f], the IC50 was 13100 nM. As for `CN(C)CC(=O)N1CCc2[nH]c(=O)c3ccccc3c2C1` [Compound 16g], the IC50 turned out to be 644 nM. Same read-out and setting: in the case of `O=C(CN1CCc2ccccc2C1)N1CCc2[nH]c(=O)c3ccccc3c2C1` [Compound 16h] it was 1580 nM; in that of `O=C(CNC[C@H](O)CO)N1CCc2[nH]c(=O)c3ccccc3c2C1` [Compound 16i], 668 nM; in that of `CCOC(=O)C1CCN(CC(=O)N2CCc3[nH]c(=O)c4ccccc4c3C2)CC1` [Compound 16k], 134 nM. On to `O=C1CCN(CC(=O)N2CCc3[nH]c(=O)c4ccccc4c3C2)CC1` [Compound 16l], for which the IC50 amounted to 296 nM. The same measure, in the same setting: in the case of `O=C(CN1CC=CCC1)N1CCc2[nH]c(=O)c3ccccc3c2C1` [Compound 16m] it was 214 nM; in that of `CN(C)CCCN(C)CCC(=O)N1CCc2[nH]c(=O)c3ccccc3c2C1` [Compound 17a], 282 nM; in that of `CN1CCN(CCC(=O)N2CCc3[nH]c(=O)c4ccccc4c3C2)CC1` [Compound 17b], 1800 nM. With `CC(O)CNCCC(=O)N1CCc2[nH]c(=O)c3ccccc3c2C1` (centres unmarked) [Compound 17c], the IC50 was 2180 nM. Consider `CN(CCC(=O)N1CCc2[nH]c(=O)c3ccccc3c2C1)CC(=O)OC(C)(C)C` [Compound 17d], for which the IC50 was 180 nM. For the compound `CN(C)CCN(C)CCC(=O)N1CCc2[nH]c(=O)c3ccccc3c2C1` [Compound 17e], the IC50 stood at 385 nM. Regarding `O=C(CCN1CCCCC1CO)N1CCc2[nH]c(=O)c3ccccc3c2C1` (centres unmarked) [Compound 17f], the IC50 was 435 nM. Take `O=C(CCN1CCc2ccccc2C1)N1CCc2[nH]c(=O)c3ccccc3c2C1` [Compound 17g]: the IC50 stood at 244 nM.

Turning to `O=C(CCNC[C@H](O)CO)N1CCc2[nH]c(=O)c3ccccc3c2C1` [Compound 17h], the IC50 came out at 250 nM. The same measure, in the same setting: then `O=C(CCN1CCCCC1)N1CCc2nc(O)c3ccccc3c2C1` [Compound 17i], with 71 nM; and `CCOC(=O)C1CCN(CCC(=O)N2CCc3[nH]c(=O)c4ccccc4c3C2)CC1` [Compound 17j], with 558 nM. For `O=C1CCN(CCC(=O)N2CCc3[nH]c(=O)c4ccccc4c3C2)CC1` [Compound 17k], the IC50 is 111 nM. Same read-out and setting: in the case of `O=C(CCNCCc1ccccc1F)N1CCc2[nH]c(=O)c3ccccc3c2C1` [Compound 17m] it was 164 nM; in that of `CN(C)CCCN(C)CCCC(=O)N1CCc2[nH]c(=O)c3ccccc3c2C1` [Compound 18a], 185 nM. As to `CN1CCN(CCCC(=O)N2CCc3[nH]c(=O)c4ccccc4c3C2)CC1` [Compound 18b], the IC50 was 241 nM. `CC(O)CNCCCC(=O)N1CCc2[nH]c(=O)c3ccccc3c2C1` (centres unmarked) [Compound 18c]: the IC50 worked out at 87 nM.

Turning to `CN(CCCC(=O)N1CCc2[nH]c(=O)c3ccccc3c2C1)CC(=O)OC(C)(C)C` [Compound 18d], the half-inhibitory concentration (IC50) turned out to be 495 nM. Turning to `CN(C)CCN(C)CCCC(=O)N1CCc2[nH]c(=O)c3ccccc3c2C1` [Compound 18e], the IC50 is 492 nM. As to `O=C(CCCN1CCCCC1CO)N1CCc2[nH]c(=O)c3ccccc3c2C1` (centres unmarked) [Compound 18f], the IC50 was 672 nM. Regarding `O=C(CCCN1CCN(CCO)CC1)N1CCc2[nH]c(=O)c3ccccc3c2C1` [Compound 18g], the IC50 was 479 nM. Same read-out and setting: then `CN(C)CCCC(=O)N1CCc2[nH]c(=O)c3ccccc3c2C1` [Compound 18h], with 152 nM; and `O=C(CCCN1CCCCC1)N1CCc2[nH]c(=O)c3ccccc3c2C1` [Compound 18j], with 457 nM; and `CCOC(=O)C1CCN(CCCC(=O)N2CCc3[nH]c(=O)c4ccccc4c3C2)CC1` [Compound 18k], with 482 nM. Consider `O=C1CCN(CCCC(=O)N2CCc3[nH]c(=O)c4ccccc4c3C2)CC1` [Compound 18l], for which the IC50 was 251 nM. As to `O=C(CCCN1CC=CCC1)N1CCc2[nH]c(=O)c3ccccc3c2C1` [Compound 18m], the IC50 worked out at 410 nM. Consider `O=C(CCCNCCc1ccccc1F)N1CCc2[nH]c(=O)c3ccccc3c2C1` [Compound 18n], for which the IC50 was found to be 1320 nM. Still for that read-out and setting: then `O=C(CCCNC[C@@H]1CCCO1)N1CCc2[nH]c(=O)c3ccccc3c2C1` [Compound 18o], with 322 nM; and `O=C(CCCNC[C@H]1CCCO1)N1CCc2[nH]c(=O)c3ccccc3c2C1` [Compound 18p], with 167 nM. `C[C@H](CO)NCCCC(=O)N1CCc2[nH]c(=O)c3ccccc3c2C1` [Compound 18q]: the IC50 is 251 nM. As for `O=C(CCCNCC(O)c1ccccc1)N1CCc2[nH]c(=O)c3ccccc3c2C1` (centres unmarked) [Compound 18r], the IC50 worked out at 357 nM. `O=C(CCCNCC1(O)CCCCC1)N1CCc2[nH]c(=O)c3ccccc3c2C1` [Compound 18s]: the IC50 turned out to be 156 nM. Consider `NCC(=O)N1CCc2[nH]c(=O)c3ccccc3c2C1` [Compound 21a], for which the IC50 was determined as 90 nM. Still for that read-out and setting: in the case of `CC(C)C(N)C(=O)N1CCc2[nH]c(=O)c3ccccc3c2C1` (centres unmarked) [Compound 21c] it was 698 nM.

Turning to `O=C(C1CCCN1)N1CCc2[nH]c(=O)c3ccccc3c2C1` (centres unmarked) [Compound 21d], the IC50 is 268 nM. Still for that read-out and setting: then `NC(Cc1ccccc1)C(=O)N1CCc2[nH]c(=O)c3ccccc3c2C1` (centres unmarked) [Compound 21i], with 1230 nM; and `NC(Cc1ccc(O)cc1)C(=O)N1CCc2[nH]c(=O)c3ccccc3c2C1` (centres unmarked) [Compound 21j], with 382 nM. As to `N[C@H](Cc1ccc(O)cc1)C(=O)N1CCc2[nH]c(=O)c3ccccc3c2C1` [Compound 21k], the IC50 stood at 3710 nM. With `NCCC(=O)N1CCc2[nH]c(=O)c3ccccc3c2C1` [Compound 21l], the IC50 was found to be 62 nM. `CC(=O)N1CCc2[nH]c(=O)c3ccccc3c2C1` [Compound 21n]: the half-inhibitory concentration (IC50) amounted to 58 nM. On to `O=C(NCCN1CCCCC1)N1CCc2[nH]c(=O)c3ccccc3c2C1` [Compound 21o], for which the IC50 was 105 nM. As to `O=C(c1cccc(CCl)c1)N1CCc2c([nH]c(=O)c3ccccc23)C1` [Compound 21p], the IC50 is 799 nM. For the compound `O=C(O)c1cccc(S(=O)(=O)N2CCc3[nH]c(=O)c4ccccc4c3C2)c1` [Compound 22a], the concentration for half-maximal inhibition (IC50) is 36 nM.

Consider `C=CS(=O)(=O)N1CCc2[nH]c(=O)c3ccccc3c2C1` [Compound 22c], for which the IC50 was 292 nM. Still for that read-out and setting: in the case of `CN1CCN(C(=O)c2cccc(S(=O)(=O)N3CCc4[nH]c(=O)c5ccccc5c4C3)c2)CC1` [Compound 23a] it was 441 nM; in that of `O=C(c1cccc(S(=O)(=O)N2CCc3[nH]c(=O)c4ccccc4c3C2)c1)N1CCC(N2CCCC2)CC1` [Compound 23b], 304 nM.

Test system in the next data set: not given
Assay: not given
Settings: not given
The compound `O=C1NCN2c3ccccc3Sc3cccc1c32` [Example 1, 1,2-Dihydro-7-thia-2,11b-diaza-benzo[de]anthracen-3-one] displayed a melting point of 187 to 192 °C. Same read-out and setting: then `O=C1NCN2c3ccc(S(=O)(=O)NCCN4CCOCC4)cc3Sc3cccc1c32` [Example 3, 3-Oxo-2,3-dihydro-1H-7-thia-2,11b-diaza-benzo[de]anthracene-9-(N2-morpholin-4-yl-ethyl)sulfonamide], with 227 to 228 °C. On to `O=C1NCN2c3ccc(S(=O)(=O)NCCN4CCCCC4)cc3Sc3cccc1c32` [Example 4, 3-Oxo-2,3-dihydro-1H-7-thia-2,11b-diaza-benzo[de]anthracene-9-(N-2-piperidin-1-yl-ethyl)-sulfonamide], for which the melting point is 170 to 172 °C. The same measure, in the same setting: then `O=C1NCN2c3ccc([N+](=O)[O-])cc3Sc3cccc1c32` [Example 5, 9-Nitro-1,2-dihydro-7-thia-2,11b-diaza-benzo[de]anthracen-3-one], with 205 to 208 °C. As to `O=C1NCN2c3ccccc3Oc3cccc1c32` [Example 6, 1,2-Dihydro-7-oxa-2,11b-diaza-benzo[de]anthracen-3-one], the melting point is over 300 °C.

As to `O=C1NCn2c3ccccc3c(=O)c3cccc1c32` [Example 8, 1,2-Dihydro-2,11b-diaza-benzo[de]anthracene-3,7-dione], the melting point was 250 to 255 °C. Turning to `O=C1NC(c2ccccc2)n2c3ccccc3c(=O)c3cccc1c32` (centres unmarked) [Example 9], the melting point lay within 288 to 292 °C.

As a reminder, the IC50 is the point on the concentration scale where inhibition reaches its midpoint. In general, melting point refers to the temperature, or range, at which the solid turns liquid.
